From patent US20250152577A1, “Pharmaceutical Composition of Ethidium Bromide and Use in Treating Cancer” (RUIJIN HOSPITAL, SHANGHAI JIAOTONG UNIVERSITY SCHOOL OF …, priority 2022, published 2025)

Assays:
Hela Cervical cancer = experiment: Median lethal dosage (IC50) against tumor cell lines; assay type: cell-based; details: Homo sapiens; Hela cervical cancer tumor cells
[1] = test system: mTOR, p-NFkB, p-Erk, cleaved Caspase3; experiment: Signaling molecules in cells by Western blotting; assay type: cell-based
Description: (§1) We investigated the mechanism of ethidium bromide-induced apoptosis in tumor cells. First, tumor tissues treated with ethidium bromide (mice shown in FIGS. 7 and 8, treated for 4 weeks at 20 mg/Kg per day) were subjected to SDS-Loading buffer boiling lysis and tested for associated signaling pathways by Western blotting.
In order to further determine how ethidium bromide activates phosphorylation of Erk and Caspase3 cleavage and induces apoptosis, we also tested with different cell lines treated with ethidium bromide for 10 min, 30 min, 1, 2, and 6 h.

normal cell line GES1 = experiment: Mitochondrial function by Seahorse; assay type: cell-based; details: Seahorse after 6 hours
Description: To further verify the effect of ethidium bromide on mitochondrial function, various cell lines were treated with ethidium bromide and mitochondrial function was tested by using Seahorse after 6 hours.

[2] = test system: AOM+DSS-induced colorectal tumor; experiment: AOM+DSS-induced spontaneous colorectal cancer mouse model; assay type: in vivo, mice
Description: The classical intraperitoneal injection of AOM and the spontaneous colorectal cancer formation by three rounds of DSS were utilized to construct a tumor mouse model. Mice were treated with ethidium bromide (500 mg/L dissolved in drinking water) one week after completion of the construction. […] Mice were sacrificed and their colorectum was taken for photographic observation and fixed staining.
To further verify the above results, we then expanded the sample size to about 10-16 mice per group and still used the above AOM+DSS protocol to induce spontaneous colorectal cancer formation in mice. […] Meanwhile, since it has been reported that zalcitabine (ddC) can effectively impair the function of mitochondria (mainly the replication of mtDNA, similar to ethidium bromide), we added the experimental group of zalcitabine (33 mg/Kg) as a control.
In addition, in order to investigate in what way ethidium bromide clears tumors in mice, we also tested cell proliferation (FIGS. 8A and B) and apoptosis (FIG. 8C-F) in tumor tissues and normal tissues surrounding the tumors in different treatment groups. Among them, cell proliferation was detected by immunohistochemistry of Ki67-positive cells, and apoptosis was detected by immunofluorescence staining of cleaved Caspase3.
To further verify whether ethidium bromide is still effective against already existing larger tumors (advanced colorectal cancer), we set aside a group of control mice (started administration 5 weeks after the end of induction, equivalent to the control group of mice described above) to administer them by gavage (20 mg/Kg per day).
as §1

[3] = test system: colorectal cancer cells RKO; experiment: Intraperitoneal RKO in nude mice, intraperitoneal administration; assay type: in vivo; details: intraperitoneal 10 mg/Kg once daily until day 5
Description: In addition, we also tested for nude mice utilizing intraperitoneal administration, where 2×10^6 colorectal cancer cells, RKO, were first injected intraperitoneally in nude mice, and about 3 days later, we treated the nude mice using intraperitoneal administration (10 mg/Kg).

[4] = test system: pancreatic cancer cells Panc1; experiment: Intraperitoneal injection of pancreatic cancer cells Panc1 in nude mice; assay type: in vivo; details: for tumor in the pancreas: start 3 days after cell injection
Description: To further verify whether ethidium bromide can inhibit tumor migration in vivo, we injected 2×10^6 pancreatic cancer cells Panc1 intraperitoneally into nude mice, which were then divided into 3 groups: control group, gavage, and intravenous injection administration. Mice in the gavage-administration group were started with gavage oral administration of 20 mg/Kg ethidium bromide per day by gavage 3 days after intraperitoneal injection of pancreatic cancer cells. Mice in the intravenous administration group were administered with 5 mg/Kg ethidium bromide per day intravenously (Tail-IV) 3 days after intraperitoneal injection of pancreatic cancer cells.
In order to further investigate the anti-tumor effect of ethidium bromide on nude mice with advanced tumorigenicity and to obtain its effect on the viability of nude mice, we intraperitoneally injected the nude mice with 2×10^6 pancreatic cancer cells Panc1, which were then divided into 3 groups, the control group (no-treatment group), the early-injection group (administered intravenously after 3 days) and the late-injection group (administered intravenously after 14 days). Mice in the early injection group were administered with 5 mg/Kg ethidium bromide intravenously per day for 3 weeks 3 days after intraperitoneal injection of pancreatic cancer cells (starting intravenous administration after 3 days for about 3 weeks). Mice in the late injection group were administered with 5 mg/Kg ethidium bromide intravenously per day for 3 weeks starting 2 weeks days after intraperitoneal injection of pancreatic cancer cells (starting intravenous administration after 14 days for about 3 weeks).
In addition, we utilize the most advanced nuclear magnetic spectrometer uMR 9.4T with a 30 cm aperture magnet jointly developed by our work unit and Shanghai United Imaging Healthcare Co., LTD, as well as our self-developed GC, GPA, and VTC42 coils specially designed for abdominal scanning, and an optional PET insert system to achieve the PET-MR imaging results of the temporal and spatial integrality. The development of pancreatic cancer was followed dynamically in the control and dosing groups following intraperitoneal injection of pancreatic cancer cells. Mice were injected intraperitoneally with 2×10^6 pancreatic cancer cells, Panc1, and left for 2 weeks after which a visible tumor mass can be detected in the abdominal cavity to begin intravenous administration of 5 mg/Kg ethidium bromide for 4 weeks. […] Moreover, the abdominal cavity of the control mice was filled with ascites by the late stage (where the arrows are shown), whereas there was none in the dosing group (FIGS. 13A and 13B). […] However, clearance was not achieved mostly as in the previous results and we analyzed that it might be due to the fact that the mice were kept in a non-SPF environment during the whole administration period of MRI, thus affecting the effect of the drug.

Sk-Hep1 Liver cancer = experiment: Median lethal dosage (IC50) against tumor cell lines; assay type: cell-based; details: Homo sapiens; Sk-Hep1 liver cancer tumor cells
mouse melanoma cells B16 = experiment: Subcutaneous B16 melanoma in C57 mice, intraperitoneal administration; assay type: in vivo; details: intraperitoneal 10 mg/Kg
Description: In order to further test whether ethidium bromide still has strong anti-tumor activity against solid tumors in vivo, C57 mice were first injected subcutaneously with 2×10^6 mouse melanoma cells B16, and the administration was initiated after about 10 days when the subcutaneous tumor volume of the mice reached about 30 mm^3. We first treated the mice by traditional intraperitoneal administration (10 mg/Kg). […] So after 3 days, we switched to injecting every other day. […] Although the tumors of the mice in the dosing group were slightly smaller than those in the control group, the tumor suppression effect was not obvious (FIG. 18C).

[5] = cell lines treated 10 min, 30 min, 1, 2, 6 h
[6] = gavage 20 mg/Kg once daily, one month

Structure (SMILES): CC[n+]1c(-c2ccccc2)c2cc(N)ccc2c2ccc(N)cc21 [ethidium bromide, Ethidium bromide]
- IC50 (Hela Cervical cancer): 3350 nM
- time at which mTOR was activated [1, 5]: 10 min
- time at which p-Erk was activated [1, 5]: 1 h
- time at which p-NFkB was activated [1, 5]: 30 min
- cleaved Caspase3 and Erk phosphorylation in vitro ([1]; in vitro cells (AGS, GES1, RKO), 3 days of treatment): significant increase in the phosphorylation levels of both cleaved Caspase3 and Erk
- oxygen consumption, glycolysis level, glycolysis rate (normal cell line GES1): decreased only at higher concentrations such as 5 μM
- colorectal tumor mass ([2]; 500 mg/L in drinking water, start one week after model construction, 2 months): almost complete disappearance of the tumor mass
- cleaved Caspase3, phosphorylation of Erk, LC3 level in tumor tissues (Western blotting) ([2]; 4 weeks at 20 mg/Kg per day): significant increase in cleaved Caspase3
- body weight [2, 6]: little changed
- mice with complete disappearance of spontaneous colorectal tumors [2, 6]: more than 80%
- mtDNA copy number of colorectal tumors [2, 6]: did not alter the mitochondrial mtDNA copy number
- size of the spleen, length of colorectum, weight of tissue organs vs control [2, 6]: healthier
- mice achieving complete tumor clearance ([2]; larger (advanced) tumors, start 5 weeks after end of induction, gavage 20 mg/Kg per day, 1 month): more than 40%
- Caspase3-positive tumor cells (apoptotic cells, immunofluorescence) ([2]; vs other groups and surrounding normal tissues): significantly higher
- proliferation of tumor cells (Ki67-positive, immunohistochemistry) ([2]; vs other treatment groups): significantly lower
- deaths [3]: excessive deaths in nude mice
- weight of the pancreas ([4]; administration group, especially intravenous injection, vs control): significantly smaller than that of the control group
- body weights ([4]; dosing group, intravenous 5 mg/Kg per day, 3 weeks): relatively stable
- pancreatic cancer tumor (weight) vs control ([4]; dosing groups, intravenous 5 mg/Kg per day, 3 weeks): significantly smaller than that in the control group
- nude mice with no tumor ([4]; early injection group: intravenous 5 mg/Kg per day from day 3, 3 weeks): More than 80%
- tumor in the pancreas ([4]; gavage 20 mg/Kg per day): still had a small amount of tumor, but was significantly smaller than that in the control group
- tumor in the pancreas ([4]; intravenous 5 mg/Kg per day): no tumor was found in the pancreas
- growth of pancreatic cancer in the abdominal cavity (MRI) ([4]; intravenous 5 mg/Kg, start 2 weeks after cell injection, 4 weeks): significantly inhibited, or almost completely inhibited
- body weight ([4]; intravenous injection compared with gavage): did not cause a significant decrease in body weight
- blood hemoglobin ([4]; late dosing group, intravenous 5 mg/Kg per day, 3 weeks): remained relatively normal
- tumors in the liver tissues vs control ([4]; late injection group): significantly reduced
- nude mice with no tumor at all ([4]; late injection group: intravenous 5 mg/Kg per day from day 14, 3 weeks): about 45%
- weights of liver and pancreatic tissues vs control ([4]; late-injected group): significantly smaller
- IC50 (Sk-Hep1 Liver cancer): 1260 nM
- tumor suppression effect (mouse melanoma cells B16): not obvious
- body weight (mouse melanoma cells B16; after 3 days of continuous injection): lose weight significantly
- survival of mice by the end of the experiment (mouse melanoma cells B16; daily 3 days then every other day): only 1 of the 19 mice survived
